# In paper PMC6151428, “Discovery of Novel N-Substituted Prolinamido Indazoles as Potent Rho Kinase Inhibitors and Vasorelaxation Agents” (Molecules : A Journal of Synthetic Chemistry and Natural …, 2017):
# Where two headings read alike, the source gives them in different places.
# How the values were obtained:
# ROCK I [1] = target: T1, ROCK I (Homo sapiens, UniProt Q13464); test: Rho kinase activity assay (Cyclex CY-1160 kit); assay type: biochemical
# T1 construct: purchased Cyclex, Nagoya, Japan CY-1160
# Procedure: Briefly, the compounds at 20 μM were pre-incubated in a system wherein ROCK I (0.02 ng/μL) phosphorylates the kinase substrate’s myosin-binding subunit (MBS) pre-absorbed onto the microplate in the presence of Mg^2+ and ATP. Then, the system was washed after incubation at 30 °C for 30 min. 100 μL of horseradish peroxidase-conjugated anti-AF20 antibody was added to the wells and then incubated for 30 min at room temperature. The reaction system was then incubated with the substrate tetra-methylbenzidine (TMB), which can be catalyzed from a colorless solution to a blue solution. The absorbance was measured at a wavelength of 450 nm on a microplate reader. The color reflects the relative level of ROCK I activity. The inhibitory rates of the compounds on ROCK I were obtained from OD 450 nm and the IC50 values were calculated by nonlinear regression.
# rat aortic rings [2] = test: Vasorelaxant activity test, high-potassium model; conditions: rat aortic rings constricted with high K+ (60 mmol/L); a: mean N = 6; b: single determination; -- = No activity
# Description: (§1) Abnormalities in the Rho/ROCK signaling pathway are associated with various cardiovascular diseases, especially hypertension. The inhibition of the Rho/ROCK pathway can cause the vessels to relax. The norepinephrine (NE)- or potassium chloride (KCl)-induced model of the rat aortic ring can trigger sustained vessel contraction and is usually used to evaluate vasorelaxant activity. DL0805 has shown vasorelaxant activity. Therefore, the nine compounds with significant inhibition against ROCK I were further tested for their vasorelaxant activity in rat aortic rings in both the high-potassium and NE models (Table 3). […] The potent active compound 4b with excellent activity has been further evaluated, and further pharmacokinetic and safety evaluations are in progress.
# (§2) Male Sprague-Dawley rats weighing 240–280 g (Vital River Laboratories, Beijing, China) were maintained in a 12-h light/dark cycle at 24 °C in a relative humidity of 60% room, and received food and water ad libitum. The animal care and handling were performed in accordance with the Guide for the Care and Use of Laboratory Animals published by the US National Institutes of Health and the Laboratories Institutional Animal Care and Use Committee of the Chinese Academy of Medical Science and Peking Union Medical College (ethic approval number: 00001012).
# (§3) The vasorelaxant activity assay was performed as described previously. Briefly, the descending thoracic aorta was isolated after rats were euthanized by cervical dislocation. Then, the aorta was cut into ring segments (3–4 mm in length). The endothelial layer of the aorta was destroyed by gently rubbing the luminal surface with a moist cotton swab when necessary. Two stainless-steel triangles were inserted into the lumen of each ring. One triangle was fixed, and the other attached to a force transducer. Changes in isometric force were recorded on a BIOPAC polygraph (MP100WSW, Biopac Systems, Inc, Goleta, CA, USA). The rings were mounted in organ baths containing 10 mL Krebs-Henseleit (K-H) buffer with the following composition (mM): NaCl 120, KCl 4.8, MgSO4 1.4, KH2PO4 1.2, glucose 11.0, CaCl2 2.5, NaHCO3 25.0 and EDTA 0.01. The K-H buffer was continuously bubbled with 95% O2/5% CO2 at 37 °C. Rings were allowed to equilibrate for 60 min at a resting tension of 1.2 g with changes of buffer every 20 min.
# (§4) After the equilibration period, the aortic rings were constricted with a high K^+ (60 mM) K-H solution to stimulate the tissue and to test its availability. Then, the rings were washed with normal K-H buffer to restore the basic tension of 1.2 g. The aortic rings were then stimulated with a high K^+ (60 mmol/L) K-H buffer ornorepinephrine (1 μM) to evaluate the vasorelaxant effects of the compounds. When the contraction reached the platform, compounds were added to the bath in batches at 5-min intervals to reach the accumulative concentrations of 1, 2, 5, 10, 25 and 50 μM. The tension of vessels was recorded and nonlinear regression was used to calculate the EC50 values.
# rat aortic rings [3] = test: Vasorelaxant activity test, NE model; conditions: rat aortic rings constricted with norepinephrine (1 μM); a: mean N = 6; b: single determination; -- = No activity
# Description: as §1, §2, §3, §4
# ROCK I [4] = target: T1, ROCK I; set-up: method as in PMID 22609784; conditions: lead discovered by high-throughput screening, previous article; read-out: IC50 against ROCK I; cited from earlier work
# T1 sequence (Q13464 whole entry, species assumed): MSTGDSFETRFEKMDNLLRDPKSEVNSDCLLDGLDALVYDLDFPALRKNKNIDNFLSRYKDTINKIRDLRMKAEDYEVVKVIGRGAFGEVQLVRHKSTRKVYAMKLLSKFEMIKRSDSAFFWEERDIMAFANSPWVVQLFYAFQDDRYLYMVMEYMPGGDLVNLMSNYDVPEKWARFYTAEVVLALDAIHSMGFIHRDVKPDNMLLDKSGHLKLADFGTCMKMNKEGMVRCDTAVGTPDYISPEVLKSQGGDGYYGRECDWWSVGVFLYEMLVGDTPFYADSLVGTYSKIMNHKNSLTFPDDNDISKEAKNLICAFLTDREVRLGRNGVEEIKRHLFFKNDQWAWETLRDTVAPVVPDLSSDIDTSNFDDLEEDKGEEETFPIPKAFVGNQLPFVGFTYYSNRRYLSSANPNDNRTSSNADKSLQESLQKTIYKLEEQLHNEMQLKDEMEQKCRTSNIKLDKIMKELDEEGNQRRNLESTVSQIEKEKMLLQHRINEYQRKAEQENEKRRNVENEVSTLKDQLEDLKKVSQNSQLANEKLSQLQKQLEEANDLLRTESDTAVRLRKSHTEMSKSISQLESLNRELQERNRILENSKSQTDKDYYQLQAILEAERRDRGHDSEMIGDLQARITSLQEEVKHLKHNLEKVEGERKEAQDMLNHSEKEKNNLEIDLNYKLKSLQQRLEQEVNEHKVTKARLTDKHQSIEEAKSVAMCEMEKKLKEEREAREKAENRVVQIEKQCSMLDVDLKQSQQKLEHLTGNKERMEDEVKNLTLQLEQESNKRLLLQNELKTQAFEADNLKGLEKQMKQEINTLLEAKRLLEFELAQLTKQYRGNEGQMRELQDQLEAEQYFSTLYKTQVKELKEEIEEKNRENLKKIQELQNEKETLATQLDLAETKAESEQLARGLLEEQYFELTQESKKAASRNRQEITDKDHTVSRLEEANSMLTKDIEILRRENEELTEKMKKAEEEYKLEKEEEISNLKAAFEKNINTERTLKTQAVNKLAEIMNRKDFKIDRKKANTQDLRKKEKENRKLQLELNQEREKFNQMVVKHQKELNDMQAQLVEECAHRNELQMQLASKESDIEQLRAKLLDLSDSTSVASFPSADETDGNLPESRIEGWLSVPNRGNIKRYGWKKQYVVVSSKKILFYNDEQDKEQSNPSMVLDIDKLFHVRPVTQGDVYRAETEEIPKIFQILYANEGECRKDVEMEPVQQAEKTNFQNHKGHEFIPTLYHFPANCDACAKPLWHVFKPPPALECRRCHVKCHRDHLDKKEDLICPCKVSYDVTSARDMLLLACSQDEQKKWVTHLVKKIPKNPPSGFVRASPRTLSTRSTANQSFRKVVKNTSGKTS
structure (smiles),measurement,setting,value
"N#Cc1n[nH]c2ccc([N+](=O)[O-])cc12 [DL0805, 5-Nitro-1H-indazole-3-carbonitrile, reference compound]",IC50,"ROCK I [1]; a: means of multiple experiments (N = 4), errors within 30% of the mean, b: single determinations, read-out: IC50 against ROCK I",6.67 µM
same,inhibition at 20 µM,"ROCK I [1]; compound concentration 20 μM, single determinations",72.3%
same,EC50,rat aortic rings [2],9.44 µM
same,EC50,rat aortic rings [3],28.8 µM
same,IC50,ROCK I [4],6.7 µM
